Measured values as given in PMC12202309 (International Journal of Neuropsychopharmacology, 2025).
Values joined by “and” are separate entries in the source; they are usually repeats but may differ in a detail not shown here. Equal entries are not always repeated.

Legend:
[1] = Population compartmental pharmacokinetic modelling of olanzapine and DMO;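 also: pharmacokinetic model fitted to concentration-time data, with between-animal variability described exponentially, residual error proportional, and effect of LPS injection assessed on clearance and distribution volumes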
Experimental: (§5) The individual values of the pharmacokinetic parameters were obtained as empirical Bayes estimates.
(§6) In the second step, the concentration-time data after the intravenous administration of DMO were modelled to assess distribution and elimination of the metabolite. […] The PK parameters of DMO were fixed to the values estimated after a single IV dose of the metabolite. […] The goodness-of-fit achieved by the pharmacokinetic models was assessed with the help of the objective function value and diagnostic plots of 1/observed and predicted concentrations vs. time, 2/ observed vs. individually predicted concentrations, 3/ weighted residuals vs. time and 4/ weighted residuals vs. predicted concentrations. Finally, the mean prediction errors and the mean absolute prediction errors were calculated.
(§7) The between-animal variability in model parameters were described by an exponential model and a proportional model was used to describe the residual variability.

[2] = Brain penetration (brain homogenate AUCt, Kp,brain, Kp,uu,brain); conditions: for Kp uu / Kp: C57BL/6N, mouse, brain, 0.5 mg/kg; for Kp uu: Kp,uu,brain; for Kp: Kp,brain; for AUCt brain homogenate: 4 mg/kg PO OL, t = 24 hours, mean (95% CI); for animals with brain homogenate concentration below the detection limit of 0.20 ng/g: PO olanzapine
Experimental: (§1) After a 1-week acclimation period, the mice were randomly assigned to 2 experimental groups of 36 animals each: (1) an LPS group was given a single 4 mg/kg intraperitoneal (IP) injection of lipopolysaccharide (LPS), serotype O55:B05 (Sigma) and (2) a control group received a vehicle (sterile phosphate-buffered saline). […] The volume load for mice weighing 25 g was 125 µL. […] The doses of DMSO and MC were 276 and 25 mg/kg. […] Sampling was performed at 2 intervals in each of the 18 mice injected with LPS and 18 controls. The first blood volume of 150 µL was taken into an EDTA-microvette CB 300 (Sardstedt) from a drop of blood after a small incision at the end of the tail. At the termination interval, the second blood sample was collected by cardiac puncture in terminal anesthesia, and then the animal was put to death by decapitation. […] The injected volume was 1 mL/kg, that is, 25 µL for a 25 g mouse. […] The injected volume was 2.5 mL/kg, that is, […]. After IV administrations, blood was sampled at 3, 5, 10, 20, and 40 minutes, and 1, 1.5, 2, 3, 4, and 6 hours. Blood samples were taken at 3 intervals in each mouse. The first 2 samples of 75 µL each were taken from the retroorbital plexus under brief anesthesia and the third terminal sample was described for oral dosing. Plasma samples were obtained from whole blood by centrifugation at 2000 × g for 5 minutes at 4°C. Whole brain, liver, and intestine were excised and immediately frozen in liquid nitrogen. All samples were stored at −80°C until analysis.
(§2) Details of the analysis can be found in the Supplementary Materials.
(§3) The calculation of the point estimate and the 95% bootstrap t-confidence interval for AUCt was performed with the help of the R-package PK (https://cran.r-project.org/web/packages/PK/index.html). Total brain-to-plasma drug partition coefficient (Kp,brain) and unbound brain-to-unbound plasma partition coefficient (Kp,uu, brain) were calculated using Equations 3 and 4:
Kp,brain=AUCt,brain/AUCt,plasma
Kp, uu,brain=fu,brain × AUCt,brain/fu, plasma × AUCt,plasma

[3] = C57BL/6N, mouse, in vivo
Experimental: as §5, §6, §7

[4] = in vivo; conditions: for AUC(0-t): plasma, AUCt plasma, mean (95% CI)
Experimental: as §1, §2
as §3, with “4: […]” for “4:”

[5] = system: mice; set-up: method as in supplement 4; conditions: p.o., ref supplement 4; cited from earlier work
[6] = Rapid equilibrium dialysis, binding in brain homogenates; type: in vitro ADME, mice; conditions: C57BL/6N, mouse; for fraction unbound at 4 h, 100 ng/mL: pH 7.4, RED control samples spiked at 100 ng/mL, range, read-out: unbound fraction in brain homogenate, control samples; for fraction unbound at 4 h: mean (range), pooled samples, read-out: unbound fraction in the brain homogenate
Experimental: Plasma samples collected from individual mice at each time point were pooled into composite samples due to insufficient sample volumes for performing RED. Similarly, brain homogenate samples from individual time points were pooled. RED was performed according to the manufacturer’s protocol (for details, see the Supplementary Materials). The free drug fraction in plasma was calculated by using Equation 1: […]
The free drug fraction in the brain homogenate was determined by using Equation 2, which accounts for the effect of tissue dilution on the unbound fraction:
fu,brain=1/D/(1/fu,diluted−1)+1/D
were D is the dilution factor in the brain homogenate and the fu,diluted associated free fraction determined as the ratio of concentrations in the buffer versus the diluted brain tissue.
(§4) Rapid Equilibrium Dialysis. Briefly, 50 µL of drug-spiked plasma or 100 µL of 10-fold diluted brain homogenates were added to the sample chambers of the RED device, while 300 µL or 350 µL of phosphate-buffered saline (PBS, pH at 7.4) were added to the corresponding buffer chambers. Each pooled sample was analysed in triplicate. Control samples consisting of plasma and brain homogenates from the study, spiked with clozapine and trazodone at a target concentration of 100 ng/mL, were analysed in each measurement series. Each plate was sealed with aluminium foil and incubated at 37 ± 1 °C with an agitation at 350 rpm on an orbital shaker (Randox PHMP, Grant Instruments Ltd, Shepreth, Cambridgeshire, England) for 4 hours. After incubation, a matrix-matching procedure was performed: 10 µL of each post-dialysis sample was mixed with an equal volume of PBS, while 10 µL of each buffer sample was mixed with the corresponding blank plasma or brain homogenate. Prior to analysis, 20 µL of the mixed plasma or brain homogenate samples were precipitated with 80 µL of acetonitrile containing an internal standard.

[7] = set-up: method as in supplement 9; conditions: rat; 15 % (w:v) DMSO (660 mg/kg) in 0.5 % MC p.o.; ref supplement 9; cited from earlier work
[8] = protonated form; no reference given; cited from earlier work
[9] = Rapid equilibrium dialysis, protein binding in plasma; type: in vitro ADME; conditions: C57BL/6N, mouse, plasma (pooled samples from the study mice), mean (range)
Experimental: Plasma samples collected from individual mice at each time point were pooled into composite samples due to insufficient sample volumes for performing RED. Similarly, brain homogenate samples from individual time points were pooled. RED was performed according to the manufacturer’s protocol (for details, see the Supplementary Materials). The free drug fraction in plasma was calculated by using Equation 1:
as §4, with “Prior to analysis, 20 µL of the mixed plasma or brain homogenate samples were precipitated with 80 µL of acetonitrile containing an internal standard.” left out

SMILES: Cc1cc2c(s1)Nc1ccccc1N=C2N1CCN(C)CC1 [olanzapine]
- Fp.o. olanzapine ([1]; population median (%RSE), reference group controls): 0.075 (12%)
- brain AUC higher in LPS mice than controls ([2]; intravenous olanzapine 0.5 mg/kg): 1.8 fold
- brain AUC higher in LPS mice than controls ([2]; oral olanzapine 4 mg/kg): 5.2 fold and 5 fold
- Q [3]: 9.0 (31%) L·hour^−1.kg^-1
- V1 [3]: 4.1 (13%) L.kg^-1
- V2 [3]: 3.5 (18%) L.kg^-1
- higher absolute bioavailability in LPS mice [3]: 200%
- βCL_LPS [3]: -0.43 (42%)
- βF_LPS [3]: 1.14 (14%)
- ωCL, percent interindividual variability [3]: 24 (37%)
- ωF, percent interindividual variability [3]: 16 (38%)
- ωQ, percent interindividual variability [3]: 73 (49%)
- ωV1, percent interindividual variability [3]: 45 (32%)
- ωV2, percent interindividual variability [3]: 83 (20%)
- increase of mean plasma AUC24h, LPS mice vs controls ([4]; 4 mg/kg PO olanzapine): 3.8 fold
- CL/F ([4]; mouse, in vivo, po, 4 mg/kg): 552 mL/min/kg

SMILES: C[S+](C)[O-] [DMSO, dimethyl sulfoxide]
- LD50 [5]: 16500 to 24600 mg/kg

SMILES: O=c1n(CCCN2CCN(c3cccc(Cl)c3)CC2)nc2ccccn12 [trazodone]
- fraction unbound at 4 h, 100 ng/mL [6]: 0.078 to 0.118

SMILES: O=C1CCc2cc(OCCCCc3nnnn3C3CCCCC3)ccc2N1 [cilostazole]
- increase of AUC for plasma cilostazole by DMSO [7]: 32%

SMILES: Cc1cc2c(s1)Nc1ccccc1N=C2N1CCNCC1 [DMO, 4’-N-desmethylolanzapine]
- clearance ([1]; C57BL/6N, mouse, plasma): 10.3 mL/min/kg
- Kp uu ([2]; intravenous, abstract, LPS and control mice): ≤ 0.051
- Kp ([2]; iv, Controls, 0.5 mg/kg IV DMO): 0.077
- Kp ([2]; iv, LPS mice, 0.5 mg/kg IV DMO): 0.039
- Kp uu ([2]; iv, Controls, 0.5 mg/kg IV DMO): 0.051
- Kp uu ([2]; iv, LPS mice, 0.5 mg/kg IV DMO): 0.042
- AUCt brain homogenate ([2]; Controls): trace levels^b
- brain homogenate levels after IV olanzapine ([2]; LPS animals and controls, IV olanzapine): neither the LPS animals nor the controls had any brain homogenate levels of DMO higher than the limits of detection
- animals with brain homogenate concentration below the detection limit of 0.20 ng/g ([2]; LPS group): 4 of 18
- AUCt brain homogenate ([2]; LPS mice): trace levels^b
- animals with brain homogenate concentration below the detection limit of 0.20 ng/g ([2]; control group): 5 of the 18
- pKa [8]: 8.8
- Q [3]: 2.51 (30%) L·hour^−1.kg^-1
- V1 [3]: 1.6 (14%) L.kg^-1
- V2 [3]: 1.49 (14%) L.kg^-1
- decrease in the plasma clearance of DMO in LPS mice [3]: 4.8 fold
- βCL_LPS [3]: -1.54 (21%)
- βV1_LPS [3]: -1.2 (15%)
- βV2_LPS [3]: -0.56 (38%)
- ωCL, percent interindividual variability [3]: 54 (34%)
- ωQ, percent interindividual variability [3]: 17 (90%)
- ωV1, percent interindividual variability [3]: 37 (18%)
- ωV2, percent interindividual variability [3]: 13 (122%)
- decrease of median V1 by LPS in comparison to controls ([3]; iv): 70%
- decrease of median V2 by LPS in comparison to controls ([3]; iv): 43%
- fraction unbound at 4 h ([9]; pH 7.4, LPS mice): 0.083
- fraction unbound at 4 h ([9]; pH 7.4, control mice): 0.13
- increase of mean plasma AUC24h, LPS mice vs controls ([4]; C57BL/6N, mouse, in vivo, 4 mg/kg): 2.6 fold
- increase of plasma AUC in LPS mice ([4]; C57BL/6N, mouse, in vivo, po): 140%
- AUC(0-t) ([4]; C57BL/6N, mouse, iv, 0.5 mg/kg, Controls, 0.5 mg/kg IV DMO, t = 6 hours): 562 ng·h/mL
- AUC(0-t) ([4]; C57BL/6N, mouse, iv, 0.5 mg/kg, Controls, 0.5 mg/kg IV olanzapine, t = 6 hours): 28.7 ng·h/mL
- AUC(0-t) ([4]; C57BL/6N, mouse, iv, 0.5 mg/kg, LPS mice, 0.5 mg/kg IV DMO, t = 6 hours): 1690 ng·h/mL
- AUC(0-t) ([4]; C57BL/6N, mouse, iv, 0.5 mg/kg, LPS mice, 0.5 mg/kg IV olanzapine, t = 6 hours): 57.6 ng·h/mL
- AUC(0-t) ([4]; C57BL/6N, mouse, po, 4 mg/kg, Controls, 4 mg/kg PO olanzapine, t = 24 hours): 408 ng·h/mL
- AUC(0-t) ([4]; C57BL/6N, mouse, po, 4 mg/kg, LPS mice, 4 mg/kg PO olanzapine, t = 24 hours): 1070 ng·h/mL
- fraction unbound at 4 h ([6]; pH 7.4, LPS mice): 0.088
- fraction unbound at 4 h ([6]; pH 7.4, control mice): 0.087

SMILES: CN1CCN(C2=Nc3cc(Cl)ccc3Nc3ccccc32)CC1 [clozapine]
- fraction unbound at 4 h, 100 ng/mL [6]: 0.014 to 0.021
